According to US6825202B2, “Arylsulfonyl derivatives with 5-HT6 receptor affinity” (Syntex (U.S.A.) LLC, priority 2001, dated 2004):
Where a name gives a salt, the structure may show the parent alone.

SMILES	melting point [°C]
COc1ccc(S(=O)(=O)c2cccc(Cl)c2)cc1N1CCNCC1	265 to 266.3
COc1ccc(S(=O)(=O)c2cc(Cl)cc(Cl)c2)cc1N1CCNCC1	245.9 to 246.2
COc1ccc(S(=O)(=O)c2ccc(Cl)cc2)cc1C1CCNCC1 (as salt: hydrochloride) [compound 301, 4-[5-(4-chloro-benzenesulfonyl)2methoxy-phenyl] piperidine]	235.5 to 236

Now from value to compound:

melting point [°C]	SMILES
279.9 to 283.3	COc1ccc(S(=O)(=O)c2ccc3ccccc3c2)cc1N1CCNCC1
263.4 to 272.1	COc1ccc(S(=O)(=O)c2ccc(Cl)cc2)cc1N1CCNCC1
246 to 250.1	COc1ccc(S(=O)(=O)c2cccc(F)c2)cc1N1CCNCC1
155 to 159	COc1ccc(S(=O)(=O)c2ccc(F)c3ccccc23)cc1N1CCNCC1 (as salt: hydrochloride) [compound 401, 1-[5-(4-fluoro-naphthalene-1-sulfonyl)2-methoxyphenyl]piperazine]
